Measurements as given in ChEMBL document CHEMBL4364252, “Tetrahydropyrazolo[1,5-a]pyridine-fused steroids and their in vitro biological evaluation in prostate cancer” (2019).
The source made the active and inactive calls. The rule behind the calls is not given here.

Key:
[1] = system: LAPC4; test: Antiproliferative activity against AR-positive human LAPC4 cells assessed as growth inhibition measured after 72 hrs by resazurin dye based fluorescence assay; format: functional; details: LAPC4, 72 h
[2] = system: CWR22R; test: Antiproliferative activity against human AR-positive 22Rv1 cells harboring ARE14 construct assessed as growth inhibition measured after 72 hrs by resazurin dye based fluorescence assay; format: functional; details: 22Rv1, 72 h
[3] = system: LNCaP; test: Antiproliferative activity against AR-positive human LNCAP cells assessed as growth inhibition measured after 72 hrs by resazurin dye based fluorescence assay; format: functional
[4] = system: PC-3; test: Antiproliferative activity against AR-negative human PC3 cells assessed as growth inhibition measured after 72 hrs by resazurin dye based fluorescence assay; format: functional; details: PC-3, 72 h
[5] = system: VCaP; test: Antiproliferative activity against AR-positive human VCaP cells assessed as growth inhibition measured after 72 hrs by resazurin dye based fluorescence assay; format: functional
[6] = molecular target: T1, Androgen receptor (Homo sapiens) (UniProt P10275); details: at 10 µM
T1 sequence (whole entry): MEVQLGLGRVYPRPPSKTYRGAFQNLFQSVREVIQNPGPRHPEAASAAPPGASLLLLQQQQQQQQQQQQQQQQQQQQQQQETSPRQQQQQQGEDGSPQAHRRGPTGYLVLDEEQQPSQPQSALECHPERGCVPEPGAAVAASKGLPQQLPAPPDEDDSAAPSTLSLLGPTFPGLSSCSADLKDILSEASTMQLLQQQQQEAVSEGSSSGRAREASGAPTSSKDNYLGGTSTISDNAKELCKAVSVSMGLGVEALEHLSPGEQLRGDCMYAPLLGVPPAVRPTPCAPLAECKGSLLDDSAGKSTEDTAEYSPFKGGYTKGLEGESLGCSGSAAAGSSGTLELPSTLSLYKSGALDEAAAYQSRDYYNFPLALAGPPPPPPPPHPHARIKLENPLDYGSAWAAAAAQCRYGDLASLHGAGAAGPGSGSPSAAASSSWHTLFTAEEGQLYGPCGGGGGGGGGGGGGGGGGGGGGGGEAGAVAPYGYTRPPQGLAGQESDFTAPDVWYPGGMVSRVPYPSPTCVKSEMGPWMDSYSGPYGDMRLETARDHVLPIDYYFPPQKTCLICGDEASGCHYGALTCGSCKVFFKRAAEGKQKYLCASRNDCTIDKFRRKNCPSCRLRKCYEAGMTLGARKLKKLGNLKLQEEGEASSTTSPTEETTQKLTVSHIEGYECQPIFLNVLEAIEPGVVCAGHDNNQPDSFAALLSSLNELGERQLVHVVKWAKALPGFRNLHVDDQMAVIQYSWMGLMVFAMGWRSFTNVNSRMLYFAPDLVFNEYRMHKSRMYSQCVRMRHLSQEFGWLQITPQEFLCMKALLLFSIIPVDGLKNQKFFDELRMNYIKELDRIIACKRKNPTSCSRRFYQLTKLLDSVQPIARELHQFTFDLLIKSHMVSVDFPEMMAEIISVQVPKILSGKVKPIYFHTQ
Description: Inhibition of AR transcriptional activity in AR-positive human 22Rv1 cells harboring ARE14 construct assessed as suppression of PSA expression at 10 uM after 24 hrs by immunoblot analysis

[7] = system: PC-3; test: Antiproliferative activity against AR-negative human PC3 cells assessed as cell viability at 40 uM measured after 72 hrs by resazurin dye based fluorescence assay relative to control; format: functional; details: PC-3, 72 h, read-out: Activity
[8] = system: LAPC4; test: Antiproliferative activity against AR-positive human LAPC4 cells assessed as cell viability at 40 uM measured after 72 hrs by resazurin dye based fluorescence assay relative to control; format: functional; details: LAPC4, 72 h, read-out: Activity
[9] = molecular target: T1, Androgen receptor (Homo sapiens); details: at 10 µM; remark: listed apart in the source
Description: Inhibition of R1881 induced-AR transcriptional activity in AR-positive human 22Rv1 cells harboring ARE14 construct at 10 uM after 24 hrs by luciferase assay

[10] = system: VCaP; test: Antiproliferative activity against AR-positive human VCaP cells assessed as cell viability at 40 uM measured after 72 hrs by resazurin dye based fluorescence assay relative to control; format: functional; details: read-out: Activity
[11] = system: CWR22R; test: Effect on AR-V7 variant protein expression in AR-positive human 22Rv1 cells harboring ARE14 construct at 10 uM after 24 hrs by immunoblot analysis; format: functional, cell-based
[12] = system: LNCaP; test: Antiproliferative activity against AR-positive human LNCAP cells assessed as cell viability at 40 uM measured after 72 hrs by resazurin dye based fluorescence assay relative to control; format: functional; details: read-out: Activity
[13] = system: CWR22R; test: Antiproliferative activity against AR-positive human 22Rv1 cells harboring ARE14 construct assessed as cell viability at 40 uM measured after 72 hrs by resazurin dye based fluorescence assay relative to control; format: functional; details: 22Rv1, 72 h, read-out: Activity
[14] = molecular target: T1, Androgen receptor (Homo sapiens); details: at 10 µM; remark: listed apart in the source
Description: Inhibition of AR transcriptional activity in AR-positive human 22Rv1 cells harboring ARE14 construct assessed as suppression of NKX3.1 expression at 10 uM after 24 hrs by immunoblot analysis

| Structure (SMILES) | GI50 [3] [µM] | GI50 [4] [µM] | GI50 [5] [µM] | inhibition [6] | inhibition [9] | inhibition [14] | GI50 [1] [µM] | GI50 [2] [µM] | viability at 40 µM [7] [%] | viability at 40 µM [8] [%] | viability at 40 µM [10] [%] | Activity [11] | viability at 40 µM [12] [%] | viability at 40 µM [13] [%] |
| --- | --- | --- | --- | --- | --- | --- | --- | --- | --- | --- | --- | --- | --- | --- |
| COC(=O)c1cnn2c1C[C@]1(C(C)=O)[C@@H](C[C@H]3[C@@H]4CC=C5C[C@@H](O)CC[C@]5(C)[C@H]4CC[C@@]31C)C2 | – | > 40 | > 40 | Active | inactive | Active | – | > 40 | 89.6 | – | 90.4 | inactive | – | 78.5 |
| COC(=O)c1nn2c(c1C(=O)OC)C[C@]1(C(C)=O)[C@@H](C[C@H]3[C@@H]4CC=C5C[C@@H](OC(C)=O)CC[C@]5(C)[C@H]4CC[C@@]31C)[C@H]2Cc1ccccc1 | > 40 | > 40 | > 40 | inactive | inactive | inactive | > 40 | > 40 | > 100 | > 100 | 85.9 | inactive | 89.7 | 15 |
| CNC(=O)c1ccc(N2C(=S)N(c3ccc(C#N)c(C(F)(F)F)c3)C(=O)C2(C)C)cc1F [ENZALUTAMIDE] | – | – | – | – | – | – | – | – | 88.7 | 80.3 | 61.2 | – | 94.2 | 84 |
| C[C@@H](O)[C@@]12Cc3c(CO)cnn3C[C@@H]1C[C@H]1[C@@H]3CC=C4C[C@@H](O)CC[C@]4(C)[C@H]3CC[C@@]12C | > 40 | > 40 | > 40 | – | inactive | – | > 40 | > 40 | > 100 | 92.2 | 96.7 | inactive | 82.8 | 96.3 |
| COC(=O)c1cnn2c1C[C@]1(C(C)=O)[C@@H](C[C@H]3[C@@H]4CC=C5C[C@@H](OC(C)=O)CC[C@]5(C)[C@H]4CC[C@@]31C)C2 | – | > 40 | > 40 | Active | inactive | – | – | > 40 | > 100 | – | 84.9 | inactive | – | 83.3 |
| COC(=O)c1nn2c(c1C(=O)OC)C[C@]1(C(C)=O)[C@@H](C[C@H]3[C@@H]4CC=C5C[C@@H](O)CC[C@]5(C)[C@H]4CC[C@@]31C)C2 | – | > 40 | > 40 | inactive | inactive | inactive | – | > 40 | 71.7 | – | > 100 | inactive | – | 88 |
| CC(=O)[C@@]12Cc3c(C(=O)O)cnn3C[C@@H]1C[C@H]1[C@@H]3CCC4=CC(=O)CC[C@]4(C)[C@H]3CC[C@@]12C | – | > 40 | > 40 | inactive | inactive | inactive | – | > 40 | > 100 | – | 95.7 | inactive | – | 92.4 |
| COC(=O)c1nn2c(c1C(=O)OC)C[C@]1(C(C)=O)[C@@H](C[C@H]3[C@@H]4CCC5=CC(=O)CC[C@]5(C)[C@H]4CC[C@@]31C)C2 | – | > 40 | > 40 | inactive | inactive | Active | – | > 40 | 94 | – | 80.3 | inactive | – | 73.5 |

Further lines, with some results ahead:

| GI50 [3] [µM] | GI50 [4] [µM] | GI50 [5] [µM] | inhibition [6] | inhibition [9] | inhibition [14] | Structure (SMILES) | GI50 [1] [µM] | GI50 [2] [µM] | viability at 40 µM [7] [%] | viability at 40 µM [8] [%] | viability at 40 µM [10] [%] | Activity [11] | viability at 40 µM [12] [%] | viability at 40 µM [13] [%] |
| --- | --- | --- | --- | --- | --- | --- | --- | --- | --- | --- | --- | --- | --- | --- |
| > 40 | > 40 | > 40 | Active | inactive | – | COC(=O)c1nn2c(c1C(=O)OC)C[C@]1(C(C)=O)[C@@H](C[C@H]3[C@@H]4CCC5=CC(=O)CC[C@]5(C)[C@H]4CC[C@@]31C)[C@H]2Cc1ccccc1 | > 40 | > 40 | > 100 | 97.2 | 80.7 | inactive | 80.6 | 63.3 |
| > 40 | > 40 | > 40 | inactive | inactive | inactive | COC(=O)c1nn2c(c1C(=O)OC)C[C@]1(C(C)=O)[C@@H](C[C@H]3[C@@H]4CC=C5C[C@@H](O)CC[C@]5(C)[C@H]4CC[C@@]31C)[C@H]2Cc1ccccc1 | > 40 | > 40 | 64.7 | 81.3 | 57 | inactive | 83.5 | 28.4 |
| > 40 | > 40 | > 40 | Active | inactive | – | C[C@@H](O)[C@@]12Cc3c(CO)c(CO)nn3[C@H](Cc3ccccc3)[C@@H]1C[C@H]1[C@@H]3CC=C4C[C@@H](O)CC[C@]4(C)[C@H]3CC[C@@]12C | > 40 | > 40 | > 100 | 85.9 | 43 | inactive | 89.7 | 55.8 |
| > 40 | > 40 | > 40 | inactive | inactive | Active | C[C@@H](O)[C@@]12Cc3c(CO)c(CO)nn3C[C@@H]1C[C@H]1[C@@H]3CC=C4C[C@@H](O)CC[C@]4(C)[C@H]3CC[C@@]12C | > 40 | > 40 | > 100 | 97.5 | 96.3 | inactive | 92.8 | 95.8 |
